ChEMBL document CHEMBL3603819, “Targeting zoonotic viruses: Structure-based inhibition of the 3C-like protease from bat coronavirus HKU4--The likely reservoir host to the human coronavirus that causes Middle East Respiratory Syndrome (MERS)” (Bioorg Med Chem, 2015)

System: Tylonycteris bat coronavirus HKU4
Conditions: at 100 µM

Row | SMILES | inhibition [%]
1 | CC(C)(C)NC(=O)[C@H](c1cccnc1)N(C(=O)c1ccco1)c1ccc(C(C)(C)C)cc1 | 65
2 | CC(C)(C)NC(=O)C(c1ccsc1)N(C(=O)Cc1cccc2ccccc12)c1ccc(C(C)(C)C)cc1 (configuration not stated) | 15
3 | CC(C)(C)NC(=O)C(c1cccc(F)c1)N(C(=O)Cn1nnc2ccccc21)C1CC2CCC1C2 (configuration not stated) | 15
4 | CC(C)(C)NC(=O)C(c1ccsc1)N(C(=O)c1cccc2c1CCCC2)c1ccc(F)cc1 (configuration not stated) | 17
5 | CC(C)(C)NC(=O)C(c1cccnc1)N(C(=O)Cc1c[nH]c2ccccc12)c1ccc(C(C)(C)C)cc1 (configuration not stated) | 79
6 | CC(=O)Nc1ccc(N(C(=O)Cn2ccnc2C)C(C(=O)NC(C)(C)C)c2ccsc2)cc1 (configuration not stated) | 17
7 | CC(C)(C)NC(=O)C(c1ccsc1)N(C(=O)Cn1nnc2ccccc21)c1ccc(NC(=O)C2CC2)cc1 (configuration not stated) | 85
8 | CC(C)(C)NC(=O)C(c1cccnc1)N(C(=O)c1ccc(C(F)(F)F)nc1)c1ccc(OCF)cc1 (configuration not stated) | 15
9 | CC(C)c1ccc(N(C(=O)Cc2c[nH]c3ccccc23)C(C(=O)NC(C)(C)C)c2ccsc2)cc1 (configuration not stated) | 25
10 | CC(C)(C)NC(=O)C(c1ccsc1)N(C(=O)Cn1nnc2ccccc21)c1ccc(NC(=O)c2ccccc2)cc1 (configuration not stated) | 79
11 | CC(C)(C)NC(=O)C(c1ccsc1)N(C(=O)c1ccc(C#N)cc1)c1ccc(F)cc1 (configuration not stated) | 13
12 | CC(C)(C)NC(=O)C(c1cccnc1)N(C(=O)c1coc2ccccc12)c1ccc(C(C)(C)C)cc1 (configuration not stated) | 19
13 | CC(C)(C)NC(=O)C(c1ccnnc1)N(C(=O)c1ccco1)c1ccc(C(C)(C)C)cc1 (configuration not stated) | 35
14 | O=C(NCc1ccccc1)C(c1cccc(F)c1)N(C(=O)Cn1nnc2ccccc21)C12CC3CC(CC(C3)C1)C2 (configuration not stated) | 16
15 | CC(C)(C)NC(=O)C(c1cccnc1)N(C(=O)c1ccco1)C12CC3CC(CC(C3)C1)C2 (configuration not stated) | 18
16 | CC(C)(C)NC(=O)C(c1ccsc1)N(C(=O)Cn1nnc2ccccc21)c1ccc(NC(=O)C(C)(C)C)cc1 (configuration not stated) | 18
17 | CCOc1ccc(N(C(=O)c2ccco2)C(C(=O)NC(C)(C)C)c2cccnc2)cc1 (configuration not stated) | 12
18 | CC(C)(C)NC(=O)C(c1cccnc1)N(C(=O)c1ccc(O)cc1)c1ccc(C(C)(C)C)cc1 (configuration not stated) | 11
19 | CC(C)c1ccc(N(C(=O)c2ccc(C(F)(F)F)nc2)C(C(=O)NC(C)(C)C)c2ccsc2)cc1 (configuration not stated) | 15
20 | CC(C)(C)NC(=O)C(c1cccnc1)N(C(=O)c1cccnc1)c1ccc(C(C)(C)C)cc1 (configuration not stated) | 13
21 | CC(C)(C)NC(=O)C(c1cccnc1)N(C(=O)c1n[nH]c2ccccc12)C1CC1 (configuration not stated) | 21
22 | CC(C)(C)NC(=O)[C@H](c1cccnc1)N(C(=O)c1c[nH]cn1)c1ccc(C(C)(C)C)cc1 | 44

Row | SMILES | inhibition [%]
23 | CC(C)(C)NC(=O)C(c1ccsc1)N(C(=O)Cc1cccc2ccccc12)c1ccc(OCF)cc1 (configuration not stated) | 17
24 | CC(C)(C)NC(=O)C(c1cccnc1)N(C(=O)c1cccc2c1CCCC2)c1ccc(OCF)cc1 (configuration not stated) | 21
25 | Cn1cnc(C(=O)N(c2ccc(C(C)(C)C)cc2)C(C(=O)NC(C)(C)C)c2cccnc2)c1 (configuration not stated) | 60
26 | CC(C)(C)NC(=O)C(c1cccnc1)N(C(=O)c1ccco1)c1ccc(OCc2ccccc2)cc1 (configuration not stated) | 14
27 | CC(=O)Nc1ccc(N(C(=O)Cn2nnc3ccccc32)C(C(=O)NC(C)(C)C)c2ccsc2)cc1 (configuration not stated) | 53
28 | CC(C)(C)NC(=O)C(c1cccnc1)N(C(=O)C1CCCO1)c1ccc(C(C)(C)C)cc1 (configuration not stated) | 18
29 | O=C(NCc1ccccc1)C(c1cccc(F)c1)N(C(=O)Cn1nnc2ccccc21)C1CC2CCC1C2 (configuration not stated) | 12
30 | COc1ccc(N(C(=O)c2ccco2)C(C(=O)NC(C)(C)C)c2cccnc2)cc1 (configuration not stated) | 10
31 | CC(C)(C)c1ccc(N(Cc2cccnc2)C(=O)c2ccoc2)cc1 | 24
32 | CC(C)(C)NC(=O)C(c1cccnc1)N(C(=O)CC(F)(F)F)c1ccc(C(C)(C)C)cc1 (configuration not stated) | 13
33 | CC(C)(C)NC(=O)C(c1cccnc1)N(C(=O)c1ccc(C#N)cc1)C1CC1 (configuration not stated) | 23
34 | CC(C)(C)NC(=O)C(c1cccnc1)N(C(=O)c1n[nH]c2ccccc12)c1ccc(F)cc1 (configuration not stated) | 14
35 | O=C(Nc1ccc(N(Cc2ccsc2)C(=O)Cn2nnc3ccccc32)cc1)C1CCCCC1 | 88
36 | CC(C)(C)C(=O)Nc1ccc(N(Cc2ccsc2)C(=O)Cn2nnc3ccccc32)cc1 | 67
37 | CC(C)(C)NC(=O)C(c1cccnc1)N(C(=O)c1ccco1)c1ccc(Cc2ccccc2)cc1 (configuration not stated) | 8
38 | CC(C)C(=O)Nc1ccc(N(C(=O)Cn2cnc3ccccc32)C(C(=O)NC(C)(C)C)c2ccsc2)cc1 (configuration not stated) | 56
39 | CC(C)(C)c1ccc(N(Cc2cccnc2)C(=O)c2c[nH]cn2)cc1 | 28
40 | CC(C)c1ccc(N(C(=O)Cc2cccc3ccccc23)C(C(=O)NC(C)(C)C)c2cccnc2)cc1 (configuration not stated) | 26
41 | CC(C)(C)NC(=O)C(c1cccnc1)N(C(=O)Cc1c[nH]c2ccccc12)c1ccc(F)cc1 (configuration not stated) | 41
42 | Cc1ccoc1C(=O)N(c1ccc(C(C)C)cc1)C(C(=O)NC(C)(C)C)c1cccnc1 (configuration not stated) | 36
43 | CC(C)C(=O)Nc1ccc(N(Cc2ccsc2)C(=O)Cn2cc(-c3ccccc3)nn2)cc1 | 25
44 | CC(C)(C)NC(=O)C(c1cccnc1)N(C(=O)c1cccc2c1CCCC2)C1CC1 (configuration not stated) | 18

Row | SMILES | inhibition [%]
45 | CC(C)c1ccc(N(C(=O)Cc2cccnc2)C(C(=O)NC(C)(C)C)c2ccsc2)cc1 (configuration not stated) | 24
46 | CC(C)c1ccc(N(C(=O)c2ccco2)C(C(=O)NC(C)(C)C)c2ccsc2)cc1 (configuration not stated) | 18
47 | CC(C)(C)NC(=O)C(c1ccsc1)N(C(=O)Cc1cccnc1)c1ccc(OCF)cc1 (configuration not stated) | 29
48 | CC(C)(C)NC(=O)C(c1ccsc1)N(C(=O)Cc1cccnc1)c1ccc(C(C)(C)C)cc1 (configuration not stated) | 23
49 | CC(C)COc1ccc(N(C(=O)c2ccco2)C(C(=O)NC(C)(C)C)c2cccnc2)cc1 (configuration not stated) | 25
50 | CC(C)(C)NC(=O)C(c1cccnc1)N(C(=O)c1ncccn1)c1ccc(C(C)(C)C)cc1 (configuration not stated) | 13
51 | Cc1nc2ccccc2n1CC(=O)N(c1ccc(NC(=O)C(C)C)cc1)C(C(=O)NC(C)(C)C)c1ccsc1 (configuration not stated) | 14
52 | CC(C)(C)NC(=O)C(c1cccnc1)N(C(=O)Cc1cccnc1)c1ccc(C(C)(C)C)cc1 (configuration not stated) | 23
53 | CC(C)(C)NC(=O)C(c1cccnc1)N(C(=O)c1ncco1)c1ccc(C(C)(C)C)cc1 (configuration not stated) | 30
54 | CC(C)(C)NC(=O)C(c1ccsc1)N(C(=O)c1n[nH]c2ccccc12)c1ccc(F)cc1 (configuration not stated) | 11
55 | CC(C)(C)NC(=O)C(c1cccnc1)N(C(=O)c1ccc(C(F)(F)F)nc1)c1ccc(C(C)(C)C)cc1 (configuration not stated) | 15
56 | CC(C)(C)NC(=O)C(c1cncnc1)N(C(=O)c1c[nH]cn1)c1ccc(C(C)(C)C)cc1 (configuration not stated) | 84
57 | CC(C)C(=O)Nc1ccc(N(C(=O)Cn2nnc3ccccc32)C(C(=O)NCc2ccccc2)c2cccc(F)c2)cc1 (configuration not stated) | 62
58 | CCC(=O)Nc1ccc(N(C(=O)Cn2cnc3ccccc32)C(C(=O)NC(C)(C)C)c2ccsc2)cc1 (configuration not stated) | 68
59 | CC(C)(C)NC(=O)C(c1cccnc1)N(C(=O)c1ccco1)c1ccc(-c2c(F)cccc2F)cc1 (configuration not stated) | 23
60 | CC(C)(C)NC(=O)C(c1ccsc1)N(C(=O)c1ccco1)c1ccc(OC(F)F)cc1 (configuration not stated) | 13
61 | CCCOc1ccc(N(C(=O)c2ccco2)C(C(=O)NC(C)(C)C)c2cccnc2)cc1 (configuration not stated) | 10
62 | CC(C)(C)NC(=O)C(c1cccnc1)N(C(=O)c1ccco1)c1ccc(F)cc1 (configuration not stated) | 41
63 | CC(C)(C)NC(=O)C(c1cccnc1)N(C(=O)c1cnco1)c1ccc(C(C)(C)C)cc1 (configuration not stated) | 96
64 | CC(C)(C)NC(=O)C(c1cccnc1)N(C(=O)c1ccc(Cl)o1)c1ccc(C(C)(C)C)cc1 (configuration not stated) | 12
65 | CC(C)(C)NC(=O)C(c1cccnc1)N(C(=O)Cc1cnc[nH]1)c1ccc(C(C)(C)C)cc1 (configuration not stated) | 24
66 | CC(C)c1ccc(N(C(=O)c2n[nH]c3ccccc23)C(C(=O)NC(C)(C)C)c2cccnc2)cc1 (configuration not stated) | 21

Row | SMILES | inhibition [%]
67 | CC(C)(C)NC(=O)C(c1c[nH]nn1)N(C(=O)c1ccco1)c1ccc(C(C)(C)C)cc1 (configuration not stated) | 16
68 | Cc1ccc(C(=O)N(c2ccc(C(C)(C)C)cc2)C(C(=O)NC(C)(C)C)c2cccnc2)o1 (configuration not stated) | 26
69 | CC(C)C(=O)Nc1ccc(N(C(=O)Cn2nnc3ccccc32)C(C(=O)NC(C)(C)C)c2ccsc2)cc1 (configuration not stated) | 76
70 | CC(C)(C)NC(=O)C(c1ccsc1)N(C(=O)Cn1nnc2ccccc21)c1ccc(NC(=O)c2cccs2)cc1 (configuration not stated) | 26
71 | CC(C)(C)NC(=O)C(c1ccc(C(C)(C)C)cc1)N(C(=O)c1ccco1)c1ccc(C(C)(C)C)cc1 (configuration not stated) | 26
72 | CC(C)(C)NC(=O)C(c1cccnc1)N(C(=O)Cc1cccc2ccccc12)c1ccc(OCF)cc1 (configuration not stated) | 21
73 | CC(C)(C)NC(=O)C(c1ccsc1)N(C(=O)Cc1cccc2ccccc12)c1ccc(F)cc1 (configuration not stated) | 15
74 | O=C(Nc1ccc(N(Cc2ccsc2)C(=O)Cn2nnc3ccccc32)cc1)C1CC1 | 89
75 | CC(C)(C)NC(=O)C(c1ccsc1)N(C(=O)c1ccc(C(F)(F)F)nc1)c1ccc(C(C)(C)C)cc1 (configuration not stated) | 17
76 | CC(C)(C)NC(=O)C(c1cccnc1)N(C(=O)c1ccc(C(F)(F)F)cn1)C1CC1 (configuration not stated) | 42
77 | Cc1nc2ccccc2n1CC(=O)N(c1ccc(C(C)(C)C)cc1)C(C(=O)NC(C)(C)C)c1ccsc1 (configuration not stated) | 19
78 | COc1ccc(C(=O)N(c2ccc(C(C)(C)C)cc2)C(C(=O)NC(C)(C)C)c2cccnc2)cc1 (configuration not stated) | 16
79 | CC(C)(C)NC(=O)C(c1ccncc1)N(C(=O)c1ccco1)c1ccc(C(C)(C)C)cc1 (configuration not stated) | 28
80 | CCC(C)c1ccc(N(C(=O)c2ccco2)[C@H](C(=O)NC(C)(C)C)c2cccnc2)cc1 (some centres not stated) | 39
81 | CC(C)(C)NC(=O)C(c1cccnc1)N(C(=O)c1ccco1)c1ccc(NS(C)(=O)=O)cc1 (configuration not stated) | 12
82 | CCC(C)c1ccc(N(C(=O)c2ccco2)[C@@H](C(=O)NC(C)(C)C)c2cccnc2)cc1 (some centres not stated) | 20
83 | O=C(Cn1nnc2ccccc21)N(Cc1ccsc1)c1ccc(-c2ccccc2)cc1 | 21
84 | CC(C)c1ccc(N(C(=O)c2ccc(C#N)cc2)C(C(=O)NC(C)(C)C)c2cccnc2)cc1 (configuration not stated) | 28
85 | CC(C)C(=O)Nc1ccc(N(Cc2ccsc2)C(=O)Cn2cc([Si](C)(C)C)nn2)cc1 | 15
86 | CC(C)(C)NC(=O)C(c1ccsc1)N(C(=O)Cc1c[nH]c2ccccc12)c1ccc(OCF)cc1 (configuration not stated) | 25
87 | CC(C)(C)NC(=O)C(c1cccnc1)N(C(=O)c1ccco1)c1ccc(-c2ccc(F)cc2F)cc1 (configuration not stated) | 16
